Measured values from ChEMBL document CHEMBL4138139, “Discovery of VU6005649, a CNS Penetrant mGlu7/8 Receptor PAM Derived from a Series of Pyrazolo[1,5-a]pyrimidines” (ACS Med Chem Lett, 2017).

Key:
[1] = Brain to plasma partition coefficient, Kp of the compound in Sprague-Dawley rat at 0.2 to […], iv administered as cassette dose measured at […] post dose by LC-MS/MS analysis; assay type: ADME, organism-based; details: brain and plasma
[2] = Unbound brain to plasma concentration ratio in Sprague-Dawley rat at 0.2 to […], iv administered as cassette dose measured at […] post dose by LC-MS/MS analysis; assay type: ADME, organism-based; details: brain and plasma, read-out: K(p,uu,brain)
[3] = molecular target: T1, Metabotropic glutamate receptor 8 (Rattus norvegicus, UniProt P70579); assay: Negative allosteric modulation of rat mGlu8 receptor expressed in HEK cells co-expressing Galphai5 assessed as decrease in glutamate-induced thallium flux incubated for 142 secs followed by glutamate addition measured after 120 secs by Fluo4-AM dye based fluorescence assay; assay type: functional, cell-based
[4] = molecular target: T2, Metabotropic glutamate receptor 7 (Rattus norvegicus, UniProt P35400); assay: Negative allosteric modulation of rat mGlu7 receptor expressed in HEK cells co-expressing Galphai5 assessed as decrease in glutamate-induced thallium flux incubated for 142 secs followed by glutamate addition measured after 120 secs by Fluo4-AM dye based fluorescence assay; assay type: functional, cell-based
[5] = molecular target: T3, Metabotropic glutamate receptor 4 (Homo sapiens, UniProt Q14833); assay: Negative allosteric modulation of human mGlu4 receptor expressed in CHO cells co-expressing Gqi5 harboring GIRK channel assessed as decrease in glutamate-induced thallium flux incubated for 142 secs followed by glutamate addition measured after 120 secs by Fluo4-AM dye based fluorescence assay; assay type: functional, cell-based
[6] = molecular target: T2, Metabotropic glutamate receptor 7; assay: Positive allosteric modulation of rat mGlu7 receptor expressed in HEK cells co-expressing Galphai5 assessed as increase in glutamate-induced calcium flux incubated for 142 secs followed by glutamate addition measured after 120 secs by Fluo4-AM dye based fluorescence assay; assay type: functional, cell-based
[7] = molecular target: T3, Metabotropic glutamate receptor 4; assay: Positive allosteric modulation of human mGlu4 receptor expressed in CHO cells co-expressing Gqi5 assessed as increase in glutamate-induced calcium mobilization incubated for 142 secs followed by glutamate addition measured after 120 secs by Fluo4-AM dye based fluorescence assay; assay type: functional, cell-based
[8] = molecular target: T1, Metabotropic glutamate receptor 8; assay: Positive allosteric modulation of rat mGlu8 receptor expressed in HEK cells co-expressing Galphai5 assessed as increase in glutamate-induced calcium flux incubated for 142 secs followed by glutamate addition measured after 120 secs by Fluo4-AM dye based fluorescence assay; assay type: functional, cell-based
Cytochrome P450 1A2 = molecular target: T4, Cytochrome P450 1A2 (Homo sapiens, UniProt P05177); assay: Inhibition of CYP1A2 in human liver microsomes using phenacetin as substrate preincubated for 15 mins followed by NADPH addition measured after 8 mins by LC-MS/MS analysis; assay type: ADME
T4 sequence (P05177 whole entry): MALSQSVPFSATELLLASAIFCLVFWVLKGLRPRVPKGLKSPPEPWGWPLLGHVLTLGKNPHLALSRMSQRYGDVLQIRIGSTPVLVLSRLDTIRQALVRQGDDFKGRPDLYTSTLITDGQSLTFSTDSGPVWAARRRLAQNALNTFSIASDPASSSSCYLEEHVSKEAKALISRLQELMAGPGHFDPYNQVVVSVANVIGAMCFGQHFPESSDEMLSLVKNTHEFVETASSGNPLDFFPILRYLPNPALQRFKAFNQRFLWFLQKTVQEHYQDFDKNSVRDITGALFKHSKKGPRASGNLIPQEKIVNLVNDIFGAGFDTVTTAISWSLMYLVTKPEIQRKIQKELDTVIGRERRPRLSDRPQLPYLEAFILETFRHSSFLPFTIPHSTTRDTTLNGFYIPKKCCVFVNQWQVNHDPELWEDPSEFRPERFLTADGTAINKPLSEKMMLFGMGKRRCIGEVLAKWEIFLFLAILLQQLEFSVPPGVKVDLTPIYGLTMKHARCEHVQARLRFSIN

Cytochrome P450 3A4 = Cytochrome P450 3A4 (Homo sapiens, UniProt P08684); assay: Inhibition of CYP3A4 in human liver microsomes using midazolam as substrate preincubated for 15 mins followed by NADPH addition measured after 8 mins by LC-MS/MS analysis; assay type: ADME
Cytochrome P450 2C9 = Cytochrome P450 2C9 (Homo sapiens, UniProt P11712); assay: Inhibition of CYP2C9 in human liver microsomes using diclofenac as substrate preincubated for 15 mins followed by NADPH addition measured after 8 mins by LC-MS/MS analysis; assay type: ADME
Cytochrome P450 2D6 = Cytochrome P450 2D6 (Homo sapiens, UniProt P10635); assay: Inhibition of CYP2D6 in human liver microsomes using dextromethorphan as substrate preincubated for 15 mins followed by NADPH addition measured after 8 mins by LC-MS/MS analysis; assay type: ADME
Cytochrome P450 2D6, sequence (P10635 whole entry): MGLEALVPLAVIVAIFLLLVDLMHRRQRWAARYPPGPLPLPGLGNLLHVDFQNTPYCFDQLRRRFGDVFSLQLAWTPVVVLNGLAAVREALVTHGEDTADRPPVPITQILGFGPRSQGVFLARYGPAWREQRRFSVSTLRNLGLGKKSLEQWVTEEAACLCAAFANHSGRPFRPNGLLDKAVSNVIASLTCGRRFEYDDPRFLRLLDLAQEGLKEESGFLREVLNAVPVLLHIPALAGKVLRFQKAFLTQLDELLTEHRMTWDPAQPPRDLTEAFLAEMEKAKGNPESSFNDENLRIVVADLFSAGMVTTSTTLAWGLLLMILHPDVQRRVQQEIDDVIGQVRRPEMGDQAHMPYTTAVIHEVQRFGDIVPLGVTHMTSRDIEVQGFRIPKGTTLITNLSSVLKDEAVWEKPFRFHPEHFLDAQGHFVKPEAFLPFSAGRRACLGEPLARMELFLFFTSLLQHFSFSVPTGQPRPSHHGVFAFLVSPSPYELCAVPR

Cytochrome P450 3A4, sequence (P08684 whole entry): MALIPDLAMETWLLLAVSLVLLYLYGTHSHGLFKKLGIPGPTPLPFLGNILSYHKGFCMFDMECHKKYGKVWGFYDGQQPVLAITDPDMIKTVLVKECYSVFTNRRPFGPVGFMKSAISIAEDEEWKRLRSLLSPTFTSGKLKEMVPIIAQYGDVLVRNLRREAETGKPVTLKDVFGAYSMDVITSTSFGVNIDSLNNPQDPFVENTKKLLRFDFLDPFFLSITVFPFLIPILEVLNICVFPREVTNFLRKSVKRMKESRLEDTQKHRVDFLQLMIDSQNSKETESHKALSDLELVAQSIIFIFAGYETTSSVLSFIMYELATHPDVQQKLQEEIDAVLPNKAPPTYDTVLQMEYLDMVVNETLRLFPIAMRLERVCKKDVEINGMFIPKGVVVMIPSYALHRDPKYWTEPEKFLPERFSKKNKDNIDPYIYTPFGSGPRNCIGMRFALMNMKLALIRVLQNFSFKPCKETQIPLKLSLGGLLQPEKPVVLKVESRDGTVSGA
Cytochrome P450 2C9, sequence (P11712 whole entry): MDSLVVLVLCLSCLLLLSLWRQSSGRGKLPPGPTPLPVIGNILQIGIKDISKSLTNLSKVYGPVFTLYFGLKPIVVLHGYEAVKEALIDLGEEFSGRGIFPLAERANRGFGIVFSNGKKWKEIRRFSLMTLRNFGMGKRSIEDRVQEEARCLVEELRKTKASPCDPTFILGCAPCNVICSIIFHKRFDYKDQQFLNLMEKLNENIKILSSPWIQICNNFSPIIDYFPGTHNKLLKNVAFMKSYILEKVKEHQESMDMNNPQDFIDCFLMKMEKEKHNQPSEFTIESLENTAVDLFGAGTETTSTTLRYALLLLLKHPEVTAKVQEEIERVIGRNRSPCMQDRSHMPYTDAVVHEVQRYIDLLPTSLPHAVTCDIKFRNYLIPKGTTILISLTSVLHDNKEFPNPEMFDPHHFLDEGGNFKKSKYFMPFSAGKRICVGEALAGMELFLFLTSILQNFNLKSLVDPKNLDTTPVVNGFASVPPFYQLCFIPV
T3 sequence (Q14833 whole entry): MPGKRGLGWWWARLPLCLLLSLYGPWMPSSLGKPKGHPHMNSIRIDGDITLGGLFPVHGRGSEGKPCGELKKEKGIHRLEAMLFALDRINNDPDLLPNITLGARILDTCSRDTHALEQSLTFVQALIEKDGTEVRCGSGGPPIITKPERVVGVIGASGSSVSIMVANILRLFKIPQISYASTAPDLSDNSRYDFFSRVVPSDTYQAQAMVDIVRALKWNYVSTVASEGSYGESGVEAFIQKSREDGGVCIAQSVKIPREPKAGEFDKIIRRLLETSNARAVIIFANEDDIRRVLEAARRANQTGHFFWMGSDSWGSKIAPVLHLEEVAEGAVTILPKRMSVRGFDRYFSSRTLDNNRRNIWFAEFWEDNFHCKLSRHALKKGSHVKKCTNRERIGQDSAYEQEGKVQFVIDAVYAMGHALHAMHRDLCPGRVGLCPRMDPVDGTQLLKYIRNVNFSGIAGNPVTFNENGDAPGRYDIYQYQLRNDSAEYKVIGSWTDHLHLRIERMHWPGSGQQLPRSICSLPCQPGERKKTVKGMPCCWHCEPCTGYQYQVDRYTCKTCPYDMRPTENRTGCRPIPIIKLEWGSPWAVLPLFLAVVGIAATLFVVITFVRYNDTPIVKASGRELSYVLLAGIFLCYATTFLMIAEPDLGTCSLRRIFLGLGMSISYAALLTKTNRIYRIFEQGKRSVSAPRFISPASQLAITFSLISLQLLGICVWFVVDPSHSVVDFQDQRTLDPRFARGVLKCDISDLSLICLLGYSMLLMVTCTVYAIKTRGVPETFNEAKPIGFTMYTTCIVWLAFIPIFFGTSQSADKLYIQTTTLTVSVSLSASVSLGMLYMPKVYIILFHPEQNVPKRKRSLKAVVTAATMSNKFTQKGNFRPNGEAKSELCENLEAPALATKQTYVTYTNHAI
T1 sequence (P70579 whole entry): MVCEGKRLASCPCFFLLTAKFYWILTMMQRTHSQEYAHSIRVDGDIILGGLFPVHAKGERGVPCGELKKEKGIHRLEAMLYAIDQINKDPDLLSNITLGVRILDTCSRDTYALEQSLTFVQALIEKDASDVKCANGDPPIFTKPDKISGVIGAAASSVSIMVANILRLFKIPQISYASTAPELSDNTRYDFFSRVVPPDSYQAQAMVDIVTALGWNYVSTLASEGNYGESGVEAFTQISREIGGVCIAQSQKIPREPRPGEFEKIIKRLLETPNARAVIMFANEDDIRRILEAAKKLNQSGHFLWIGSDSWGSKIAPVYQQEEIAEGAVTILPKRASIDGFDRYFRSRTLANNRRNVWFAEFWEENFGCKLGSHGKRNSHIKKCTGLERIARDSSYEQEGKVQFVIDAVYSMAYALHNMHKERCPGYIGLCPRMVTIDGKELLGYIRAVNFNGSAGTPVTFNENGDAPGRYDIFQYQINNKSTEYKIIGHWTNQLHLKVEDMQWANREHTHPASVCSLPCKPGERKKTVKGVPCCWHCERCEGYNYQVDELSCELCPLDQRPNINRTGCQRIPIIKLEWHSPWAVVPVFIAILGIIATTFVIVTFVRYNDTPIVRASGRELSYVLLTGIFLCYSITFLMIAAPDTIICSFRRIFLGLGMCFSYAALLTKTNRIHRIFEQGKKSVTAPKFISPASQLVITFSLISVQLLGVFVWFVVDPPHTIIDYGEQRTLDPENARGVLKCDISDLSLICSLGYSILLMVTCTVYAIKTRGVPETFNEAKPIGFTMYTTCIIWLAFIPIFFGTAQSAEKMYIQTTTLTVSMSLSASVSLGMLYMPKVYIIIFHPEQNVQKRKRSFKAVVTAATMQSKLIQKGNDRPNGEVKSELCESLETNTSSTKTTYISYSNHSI
T2 sequence (P35400 whole entry): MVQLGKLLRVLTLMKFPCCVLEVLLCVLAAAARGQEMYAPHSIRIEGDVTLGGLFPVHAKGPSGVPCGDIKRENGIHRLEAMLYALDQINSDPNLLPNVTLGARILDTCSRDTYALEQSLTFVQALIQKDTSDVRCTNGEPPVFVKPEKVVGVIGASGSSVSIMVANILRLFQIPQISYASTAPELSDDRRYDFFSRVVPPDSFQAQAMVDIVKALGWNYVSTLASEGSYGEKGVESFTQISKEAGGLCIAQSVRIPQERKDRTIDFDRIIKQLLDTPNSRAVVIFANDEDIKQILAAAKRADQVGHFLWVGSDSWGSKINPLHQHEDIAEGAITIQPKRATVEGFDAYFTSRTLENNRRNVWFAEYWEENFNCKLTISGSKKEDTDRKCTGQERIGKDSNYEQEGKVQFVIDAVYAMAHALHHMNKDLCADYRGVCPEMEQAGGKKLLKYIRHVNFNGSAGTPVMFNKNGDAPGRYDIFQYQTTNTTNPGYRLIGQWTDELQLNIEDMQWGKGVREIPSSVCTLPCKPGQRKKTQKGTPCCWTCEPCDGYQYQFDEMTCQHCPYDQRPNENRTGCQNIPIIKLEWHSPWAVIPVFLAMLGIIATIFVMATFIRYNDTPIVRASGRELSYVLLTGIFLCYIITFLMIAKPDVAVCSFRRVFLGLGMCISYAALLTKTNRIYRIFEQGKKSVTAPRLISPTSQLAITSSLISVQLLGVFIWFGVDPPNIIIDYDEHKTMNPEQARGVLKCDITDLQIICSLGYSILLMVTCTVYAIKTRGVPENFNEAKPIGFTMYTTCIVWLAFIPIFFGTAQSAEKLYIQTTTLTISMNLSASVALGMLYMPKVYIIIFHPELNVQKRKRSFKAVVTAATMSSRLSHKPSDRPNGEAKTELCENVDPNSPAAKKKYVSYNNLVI

SMILES	Kp at […] [1]	Kp uu at […] [2]	IC50 (Cytochrome P450 1A2) [µM]	IC50 (Cytochrome P450 3A4) [µM]	IC50 (Cytochrome P450 2C9) [µM]	IC50 (Cytochrome P450 2D6) [µM]	further results
COc1ccc(-c2c(C)nn3c(C(F)(F)F)cc(C)nc23)c(F)c1	1.4	0.9	–	–	–	–	–
CCc1nc2c(o1)CC(c1ccc(C)cc1C)CC2=O (configuration not stated)	–	–	–	–	–	–	IC50 [3]: > 10 µM; IC50 [4]: 0.65 µM; IC50 [5]: > 10 µM
COC(=O)c1ccc(-n2c(C)cc(C(=O)CSc3ccc(NC(C)=O)cc3)c2C)cc1	–	–	–	–	–	–	EC50 [6]: 1.5 µM; EC50 [7]: 3.2 µM; EC50 [8]: 0.9 µM
COc1cc(F)c(-c2c(C)nn3c(C(F)(F)F)cc(C)nc23)cc1F	2.7	–	2.93	> 30	> 30	> 30	–
COc1ccc(-c2c(C)nn3c(C(F)(F)F)cc(C)nc23)cc1F	4.3	–	0.33	> 30	27	> 30	–
COc1ccc(-c2c(C)nn3c(C(F)(F)F)cc(C)nc23)cc1Cl	4.8	1.7	–	–	–	–	–
COc1cc(F)c(-c2c(C)nn3c(C(F)(F)F)cc(C)nc23)c(F)c1	2.2	–	8.67	> 30	> 30	> 30	–

Now from value to molecule, other results behind:

Kp at […] [1]	Kp uu at […] [2]	IC50 (Cytochrome P450 1A2) [µM]	IC50 (Cytochrome P450 3A4) [µM]	IC50 (Cytochrome P450 2C9) [µM]	IC50 (Cytochrome P450 2D6) [µM]	SMILES	further results
1.5	0.8	–	–	–	–	Cc1cc(C(F)(F)F)n2nc(C)c(-c3ccc(OC(F)F)cc3)c2n1	–
1.4	–	0.69	> 30	> 30	> 30	COc1ccc(-c2c(C)nn3c(C(F)(F)F)cc(C)nc23)cc1	–
